Laboratory results from patent publication US20230127944A1, “BROAD-SPECTRUM CARBAPENEMS” (priority 2019, published 2023).
≈ marks a conversion by molar mass, not a printed value.

Experiments:
Assay type in all cases: cell-based
S. aureus USA 600 = assay: broth microdilution MIC assay, S. aureus USA600; conditions: Staphylococcus aureus; S. aureus USA600 (MRSA); read-out: MIC, S. aureus USA600
Procedure: (§1) To determine the ability of test compounds to inhibit the growth of bacterial strains, classic cell-based broth microdilution MIC assays were employed. MIC assays are performed according to CLSI methods except where otherwise noted (CLSI, 2011 and CLSI, 2009). The reference strains S. aureus ATCC 29213 (methicillin sensitive), S. aureus ATCC 33591 (methicillin-resistant), E. coli ATCC 25922 (wild-type/QC strain), P. aeruginosa ATCC 27853 (wild-type/QC strain), and the clinical isolate P. aeruginosa PA 8 were used to determine the ability of the exemplary carbapenem compounds to inhibit bacterial growth. An expanded panel of methicillin resistance S. aureus (MRSA) and Pseudomonas was also used to determine the ability of exemplary carbapenem compounds to inhibit bacterial growth across a broader representation of those species. To determine activity in MRSA and in addition to S. aureus ATCC 33591, S. aureus USA 300 and USA 600, some of the most common clones found to cause human infection, were also used. To further gauge the impact on the carbapenem compounds due to various resistance mechanisms in Pseudomonas, the following strains were included: P. aeruginosa 35151 (hyper-permeable strain), P. aeruginosa ΔmexAB-OprM (an efflux pump knockout), and P. aeruginosa Paβ-173 (a clinical isolate of reduced carbapenem susceptibility). Briefly, cryo-preserved bacterial cultures of clinical strains are streaked for isolation on appropriate agar medium, in this case Mueller Hinton II agar. Following incubation to allow formation of colonies, these plates are sealed with parafilm and stored refrigerated for up to two weeks. For preparation of assay inocula and to ensure low variability, at least 5 colonies are picked from the agar plates with an inoculating loop and aseptically transferred to a culture tube containing 3 mL of Mueller-Hinton Broth (supplemented with divalent cations to required levels based on Manufacturers' specification). The broth culture is grown for 3-5 hours at 37° C. with shaking at 200 rpm. Meanwhile, 2-fold serial dilutions of test compounds are conducted in a 96 well plate with a final volume of 75 μL per well at 2-fold the final desired concentration. After the dilution plates are set up the growing cultures are then diluted in a cuvette containing MH II broth and the optical density is measured at 600 nm. Inocula are diluted such that 75 μL of this culture in Mueller-Hinton Broth results in a starting bacterial concentration of 5×10^5 CFU/mL when added to the dilution plates. The plates are incubated 16-20 hours at 37° C. The MIC is read visually as the lowest concentration well with no bacterial growth.

[1] = test system: P. aeruginosa ΔmexAB-OprM (an efflux pump knockout); assay: broth microdilution MIC assay, P. aeruginosa ΔmexAB-OprM; conditions: Pseudomonas aeruginosa, read-out: MIC, P. aeruginosa ΔmexAB-OprM
Procedure: as §1

[2] = test system: S. aureus ATCC 33591 (methicillin-resistant); assay: broth microdilution MIC assay, S. aureus 33591; conditions: Staphylococcus aureus, ATCC33591; S. aureus 33591, methicillin-resistant; read-out: MIC, S. aureus 33591
Procedure: as §1

S. aureus USA 300 = assay: broth microdilution MIC assay, S. aureus USA300; conditions: Staphylococcus aureus; S. aureus USA300 (MRSA); read-out: MIC, S. aureus USA300
Procedure: as §1

[3] = test system: E. coli ATCC 25922 (wild-type/QC strain); assay: broth microdilution MIC assay, E. coli 25922; conditions: Escherichia coli, ATCC25922; read-out: MIC, E. coli 25922
Procedure: as §1

P. aeruginosa Paeβ-17 = assay: broth microdilution MIC assay, P. aeruginosa Paeβ-17; conditions: Pseudomonas aeruginosa, read-out: MIC, P. aeruginosa Paeβ-17
Procedure: as §1

[4] = test system: P. aeruginosa 35151 (hyper-permeable strain); assay: broth microdilution MIC assay, P. aeruginosa 35151; conditions: Pseudomonas aeruginosa, read-out: MIC, P. aeruginosa 35151
Procedure: as §1

[5] = test system: P. aeruginosa ATCC 27853 (wild-type/QC strain); assay: broth microdilution MIC assay, P. aeruginosa 27853; conditions: Pseudomonas aeruginosa, ATCC27853; read-out: MIC, P. aeruginosa 27853
Procedure: as §1

Row | SMILES | MIC (S. aureus USA 600) [mg/L] | MIC [1] [mg/L] | MIC [2] [mg/L] | MIC (S. aureus USA 300) [mg/L] | MIC [3] [mg/L] | MIC (P. aeruginosa Paeβ-17) [mg/L] | MIC [4] [mg/L] | MIC [5] [mg/L]
1 | C[C@@H](O)[C@H]1C(=O)N2C(C(=O)O)=C(SC3CN([C@@H]4CC[C@H](N)C4)C3)[C@H](C)[C@H]12 [Example 6, (4R,5S,6S)-3-((1-((1R,3S)-3-aminocyclopentyl)azetidin-3-yl)thio)-6-((R)-1-hydroxyethyl)-4-methyl-7-oxo-1-azabicyclo[3.2.0]hept-2-ene-2-carboxylic acid] | 1 to 4 (≈ 2.62 to 10.5 µM) | 1 to 4 (≈ 2.62 to 10.5 µM) | 1 to 4 (≈ 2.62 to 10.5 µM) | 1 to 4 (≈ 2.62 to 10.5 µM) | < 1 | 8 to 32 (≈ 21 to 83.9 µM) | < 1 | 1 to 4 (≈ 2.62 to 10.5 µM)
2 | C[C@@H](O)[C@H]1C(=O)N2C(C(=O)O)=C(SC3CN([C@H]4CCC[C@@H](N)C4)C3)[C@H](C)[C@H]12 [Example 15, (4R,5S,6S)-3-((1-((1S,3R)-3-aminocyclohexyl)azetidin-3-yl)thio)-6-((R)-1-hydroxyethyl)-4-methyl-7-oxo-1-azabicyclo[3.2.0]hept-2-ene-2-carboxylic acid] | 1 to 4 (≈ 2.53 to 10.1 µM) | 1 to 4 (≈ 2.53 to 10.1 µM) | 8 to 32 (≈ 20.2 to 80.9 µM) | 1 to 4 (≈ 2.53 to 10.1 µM) | < 1 | 8 to 32 (≈ 20.2 to 80.9 µM) | < 1 | 1 to 4 (≈ 2.53 to 10.1 µM)
3 | C[C@@H](O)[C@H]1C(=O)N2C(C(=O)O)=C(SC3CN([C@H]4C[C@@H](N)C4)C3)[C@H](C)[C@H]12 [Example 3, (4R,5S,6S)-3-((1-((1s,3S)-3-aminocyclobutyl)azetidin-3-yl)thio)-6-((R)-1-hydroxyethyl)-4-methyl-7-oxo-1-azabicyclo[3.2.0]hept-2-ene-2-carboxylic acid] | 1 to 4 (≈ 2.72 to 10.9 µM) | 1 to 4 (≈ 2.72 to 10.9 µM) | 8 to 32 (≈ 21.8 to 87.1 µM) | 1 to 4 (≈ 2.72 to 10.9 µM) | < 1 | > 32 | < 1 | 8 to 32 (≈ 21.8 to 87.1 µM)
4 | C[C@@H](O)[C@H]1C(=O)N2C(C(=O)O)=C(S[C@@H]3CCN([C@H]4CC[C@@H](NC(=N)N)C4)C3)[C@H](C)[C@H]12 [Example 31, (4R,5S,6S)-3-(((R)-1-((1S,3R)-3-guanidinocyclopentyl)pyrrolidin-3-yl)thio)-6-((R)-1-hydroxyethyl)-4-methyl-7-oxo-1-azabicyclo[3.2.0]hept-2-ene-2-carboxylic acid] | 1 to 4 (≈ 2.29 to 9.14 µM) | < 1 | 1 to 4 (≈ 2.29 to 9.14 µM) | < 1 | < 1 | 8 to 32 (≈ 18.3 to 73.1 µM) | < 1 | 1 to 4 (≈ 2.29 to 9.14 µM)
5 | C[C@@H](O)[C@H]1C(=O)N2C(C(=O)O)=C(S[C@H]3C[C@H](N[C@H]4CC[C@@H](NC(=N)N)CC4)C3)[C@H](C)[C@H]12 [Example 69, (4R,5S,6S)-3-(((1R,3R)-3-(((1S,4S)-4-guanidinocyclohexyl)amino)cyclobutyl)thio)-6-((R)-1-hydroxyethyl)-4-methyl-7-oxo-1-azabicyclo[3.2.0]hept-2-ene-2-carboxylic acid] | 1 to 4 (≈ 2.21 to 8.86 µM) | 1 to 4 (≈ 2.21 to 8.86 µM) | 8 to 32 (≈ 17.7 to 70.9 µM) | 1 to 4 (≈ 2.21 to 8.86 µM) | < 1 | 8 to 32 (≈ 17.7 to 70.9 µM) | < 1 | 8 to 32 (≈ 17.7 to 70.9 µM)
6 | C[C@@H](O)[C@H]1C(=O)N2C(C(=O)O)=C(SC3CN([C@@H]4CC[C@@H](NC(=N)N)C4)C3)[C@H](C)[C@H]12 [Example 10, (4R,5S,6S)-3-((1-((1R,3R)-3-guanidinocyclopentyl)azetidin-3-yl)thio)-6-((R)-1-hydroxyethyl)-4-methyl-7-oxo-1-azabicyclo[3.2.0]hept-2-ene-2-carboxylic acid] | 1 to 4 (≈ 2.36 to 9.44 µM) | 1 to 4 (≈ 2.36 to 9.44 µM) | 1 to 4 (≈ 2.36 to 9.44 µM) | 1 to 4 (≈ 2.36 to 9.44 µM) | < 1 | 8 to 32 (≈ 18.9 to 75.6 µM) | < 1 | 8 to 32 (≈ 18.9 to 75.6 µM)
7 | C[C@@H](O)[C@H]1C(=O)N2C(C(=O)O)=C(S[C@@H]3CCN([C@H]4CC[C@H](NC(=N)N)CC4)C3)[C@H](C)[C@H]12 [Example 27, (4R,5S,6S)-3-(((R)-1-((1R,4R)-4-guanidinocyclohexyl)pyrrolidin-3-yl)thio)-6-((R)-1-hydroxyethyl)-4-methyl-7-oxo-1-azabicyclo[3.2.0]hept-2-ene-2-carboxylic acid] | 1 to 4 (≈ 2.21 to 8.86 µM) | 1 to 4 (≈ 2.21 to 8.86 µM) | 1 to 4 (≈ 2.21 to 8.86 µM) | 1 to 4 (≈ 2.21 to 8.86 µM) | < 1 | 8 to 32 (≈ 17.7 to 70.9 µM) | < 1 | 8 to 32 (≈ 17.7 to 70.9 µM)
8 | C[C@@H](O)[C@H]1C(=O)N2C(C(=O)O)=C(S[C@@H]3CCN(C[C@H]4CC[C@H](CNC(=N)N)CC4)C3)[C@H](C)[C@H]12 [Example 41, (4R,5S,6S)-3-(((R)-1-(((1R,4R)-4-(guanidinomethyl)cyclohexyl)methyl)pyrrolidin-3-yl)thio)-6-((R)-1-hydroxyethyl)-4-methyl-7-oxo-1-azabicyclo[3.2.0]hept-2-ene-2-carboxylic acid] | 1 to 4 (≈ 2.08 to 8.34 µM) | 1 to 4 (≈ 2.08 to 8.34 µM) | 1 to 4 (≈ 2.08 to 8.34 µM) | 1 to 4 (≈ 2.08 to 8.34 µM) | < 1 | 8 to 32 (≈ 16.7 to 66.7 µM) | < 1 | 1 to 4 (≈ 2.08 to 8.34 µM)
9 | C[C@@H](O)[C@H]1C(=O)N2C(C(=O)O)=C(S[C@@H]3CCN(C[C@H]4CC[C@@H](CN)CC4)C3)[C@H](C)[C@H]12 [Example 45, (4R,5S,6S)-3-(((R)-1-(((1S,4S)-4-(aminomethyl)cyclohexyl)methyl)pyrrolidin-3-yl)thio)-6-((R)-1-hydroxyethyl)-4-methyl-7-oxo-1-azabicyclo[3.2.0]hept-2-ene-2-carboxylic acid] | 1 to 4 (≈ 2.29 to 9.14 µM) | 1 to 4 (≈ 2.29 to 9.14 µM) | 1 to 4 (≈ 2.29 to 9.14 µM) | 1 to 4 (≈ 2.29 to 9.14 µM) | < 1 | 8 to 32 (≈ 18.3 to 73.1 µM) | < 1 | 1 to 4 (≈ 2.29 to 9.14 µM)
10 | C[C@@H](O)[C@H]1C(=O)N2C(C(=O)O)=C(S[C@H]3C[C@@H](NC4CCN(C(=N)N)CC4)C3)[C@H](C)[C@H]12 [Example 43, (4R,5S,6S)-3-(((1S,3S)-3-((1-carbamimidoylpiperidin-4-yl)amino)cyclobutyl)thio)-6-((R)-1-hydroxyethyl)-4-methyl-7-oxo-1-azabicyclo[3.2.0]hept-2-ene-2-carboxylic acid] | < 1 | 1 to 4 (≈ 2.29 to 9.14 µM) | 1 to 4 (≈ 2.29 to 9.14 µM) | < 1 | < 1 | 8 to 32 (≈ 18.3 to 73.1 µM) | < 1 | 1 to 4 (≈ 2.29 to 9.14 µM)
11 | C[C@@H](O)[C@H]1C(=O)N2C(C(=O)O)=C(S[C@@H]3CCN([C@@H]4CC[C@@H](NC(=N)N)C4)C3)[C@H](C)[C@H]12 [Example 30, (4R,5S,6S)-3-(((R)-1-((1R,3R)-3-guanidinocyclopentyl)pyrrolidin-3-yl)thio)-6-((R)-1-hydroxyethyl)-4-methyl-7-oxo-1-azabicyclo[3.2.0]hept-2-ene-2-carboxylic acid] | 1 to 4 (≈ 2.29 to 9.14 µM) | 1 to 4 (≈ 2.29 to 9.14 µM) | 8 to 32 (≈ 18.3 to 73.1 µM) | 1 to 4 (≈ 2.29 to 9.14 µM) | < 1 | > 32 | 1 to 4 (≈ 2.29 to 9.14 µM) | 8 to 32 (≈ 18.3 to 73.1 µM)
12 | C[C@@H](O)[C@H]1C(=O)N2C(C(=O)O)=C(S[C@@H]3CCN(Cc4ccc(N)nc4)C3)[C@H](C)[C@H]12 [Example 25, (4R,5S,6S)-3-(((R)-1-((6-aminopyridin-3-yl)methyl)pyrrolidin-3-yl)thio)-6-((R)-1-hydroxyethyl)-4-methyl-7-oxo-1-azabicyclo[3.2.0]hept-2-ene-2-carboxylic acid] | 1 to 4 (≈ 2.39 to 9.56 µM) | 1 to 4 (≈ 2.39 to 9.56 µM) | 8 to 32 (≈ 19.1 to 76.5 µM) | 1 to 4 (≈ 2.39 to 9.56 µM) | < 1 | > 32 | < 1 | 8 to 32 (≈ 19.1 to 76.5 µM)
